Consider twelve molecules from PubChem BioAssay (NCI).

Some test systems named below: IGROV1 ovarian; MALME-3M melanoma; MDA-MB-435; SF-539 CNS; SK-MEL-2 melanoma; SK-MEL-5 melanoma; HL-60(TB) leukemia; K-562 leukemia.
What all share (assay): NCI-60 cell line screen, 48 h

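How tested: cells in 96-well plates exposed to compound for 48 hours at five concentrations. GI50: concentration for 50% inhibition of growth. At the TGI there is no net growth.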

`O=c1c2ccccc2nc(-c2cccc([N+](=O)[O-])c2)n1O`: the TGI with IGROV1 ovarian is greater than 100 µM; in the assay with MALME-3M melanoma it was greater than 100 µM; in the assay with MDA-MB-435, greater than 100 µM; with SF-539 CNS, greater than 100 µM; with SK-MEL-2 melanoma, 91.1 µM; in the assay with SK-MEL-5 melanoma, greater than 100 µM.

On to `Cn1cc(C2NC(=O)c3ccccc3N2)c2ccccc21` (centres undefined), for which the TGI is 0.485 µM in the assay on HL-60(TB) leukemia; greater than 100 µM in the assay with IGROV1 ovarian; greater than 29.7 µM with MALME-3M melanoma; greater than 100 µM in the assay with MDA-MB-435; 6.87 µM in the assay on SF-539 CNS; 5.64 µM in the assay on SK-MEL-5 melanoma.

For `O=c1[nH]c2ccccc2n1C1CCNCC1`, the GI50 in the assay with HL-60(TB) leukemia, in the assay on IGROV1 ovarian, in the assay on K-562 leukemia, with MDA-MB-435, with SF-539 CNS and in the assay with SK-MEL-2 melanoma was greater than 100 µM throughout. The GI50 with SK-MEL-5 melanoma was greater than 100 µM. In addition, the TGI in the assay on HL-60(TB) leukemia, with IGROV1 ovarian, with K-562 leukemia, in the assay with MDA-MB-435, in the assay with SF-539 CNS and in the assay with SK-MEL-2 melanoma was greater than 100 µM each time. In the assay with SK-MEL-5 melanoma, this molecule had a TGI greater than 100 µM.

Turning to `O=C(O)/C=C\C(=O)Nc1ccc2c(c1)-c1ccccc1C2`, the TGI with HL-60(TB) leukemia, in the assay on IGROV1 ovarian, in the assay on K-562 leukemia, with MALME-3M melanoma, in the assay with MDA-MB-435 and in the assay with SK-MEL-2 melanoma was greater than 100 µM throughout. The molecule also gave a TGI in the assay on SK-MEL-5 melanoma greater than 100 µM.

As to `COC(=O)N[C@H]1CCc2cc(OC)c(OC)c(OC)c2-c2ccc(SC)c(=O)cc21`, the GI50 was less than 0.01 µM with HL-60(TB) leukemia; less than 0.01 µM in the assay on IGROV1 ovarian; less than 0.01 µM in the assay with K-562 leukemia; less than 0.012 µM in the assay on MALME-3M melanoma; less than 0.01 µM in the assay on SF-539 CNS; 1.76 µM with SK-MEL-2 melanoma. In addition, in the assay on SK-MEL-5 melanoma, the GI50 is less than 0.01 µM. Also, the TGI in the assay with IGROV1 ovarian is greater than 100 µM; with K-562 leukemia, greater than 100 µM; in the assay on MALME-3M melanoma, greater than 100 µM; in the assay with SK-MEL-2 melanoma, greater than 100 µM; in the assay on SK-MEL-5 melanoma, 0.0191 µM.

Regarding `O=C([CH-]C(=O)c1ccccc1)c1ccccc1.O=C([CH-]C(=O)c1ccccc1)c1ccccc1.O=C([CH-]C(=O)c1ccccc1)c1ccccc1.[Ga+3]`, the GI50 is 20.5 µM in the assay on HL-60(TB) leukemia; 81.9 µM with IGROV1 ovarian; 30.9 µM in the assay with K-562 leukemia; greater than 100 µM in the assay with MALME-3M melanoma; 33.9 µM with SF-539 CNS; 43.8 µM in the assay on SK-MEL-2 melanoma. The GI50 in the assay on SK-MEL-5 melanoma is 80.2 µM. Also, the TGI with HL-60(TB) leukemia, in the assay on IGROV1 ovarian, with K-562 leukemia, in the assay on MALME-3M melanoma, in the assay with SF-539 CNS and with SK-MEL-2 melanoma was greater than 100 µM throughout. The TGI in the assay on SK-MEL-5 melanoma is greater than 100 µM.

As for `O=C(O)c1ccc(N(/C=C/C(=O)C(F)(F)F)Cc2ccc(Cl)cc2)cc1`, the GI50 was 40.2 µM in the assay with HL-60(TB) leukemia; 20.3 µM with IGROV1 ovarian; 35.5 µM in the assay with MDA-MB-435; 19 µM with SF-539 CNS; 19.1 µM in the assay with SK-MEL-2 melanoma; 25 µM with SK-MEL-5 melanoma. In addition, the TGI was greater than 100 µM in the assay on HL-60(TB) leukemia; 48.9 µM in the assay on IGROV1 ovarian; greater than 100 µM with MDA-MB-435; 42.1 µM in the assay with SF-539 CNS; 53.3 µM with SK-MEL-2 melanoma; 81.1 µM with SK-MEL-5 melanoma.

As for `O=C1C=C(Nc2ccccc2)c2ccccc2C1=O`, the GI50 in the assay on HL-60(TB) leukemia was 2.82 µM; in the assay on IGROV1 ovarian, 2.78 µM; with K-562 leukemia, 2.64 µM; in the assay on MALME-3M melanoma, 1.64 µM; with MDA-MB-435, 1.93 µM; in the assay on SF-539 CNS, 1.81 µM. For the same molecule, in the assay on SK-MEL-5 melanoma, the GI50 was 1.7 µM. In addition, the TGI in the assay with HL-60(TB) leukemia was determined as 7.83 µM; with IGROV1 ovarian, 7.31 µM; with K-562 leukemia, 7.81 µM; in the assay on MALME-3M melanoma it was 3.07 µM; in the assay with MDA-MB-435 it was 3.7 µM; in the assay on SF-539 CNS it was 3.47 µM. Further, the TGI with SK-MEL-5 melanoma worked out at 3.12 µM.

For the molecule `CCOC(=O)c1noc2c1CCc1c-2cn(Cc2ccc(OC)cc2)c1-c1cc(OC)c(OC)c(OC)c1`, the GI50 is 0.452 µM in the assay on HL-60(TB) leukemia; 2.45 µM in the assay on IGROV1 ovarian; 0.574 µM with MDA-MB-435; 1.84 µM in the assay on SF-539 CNS; 4.29 µM in the assay with SK-MEL-2 melanoma; 0.493 µM in the assay on SK-MEL-5 melanoma. For the same molecule, the TGI was 4.89 µM with HL-60(TB) leukemia; greater than 100 µM with IGROV1 ovarian; greater than 100 µM in the assay on MDA-MB-435; 6.56 µM in the assay with SF-539 CNS; greater than 100 µM in the assay on SK-MEL-2 melanoma; 66.7 µM with SK-MEL-5 melanoma.

Consider `CCN1CCN(CCC(=O)Nc2cccc(-n3cc(-c4ccncc4)c(-c4ccc(Cl)c(OC)c4)n3)c2)CC1`, for which the GI50 was 0.34 µM in the assay on HL-60(TB) leukemia; 1.09 µM with IGROV1 ovarian; 0.765 µM with MALME-3M melanoma; 0.123 µM in the assay on MDA-MB-435; 0.362 µM with SF-539 CNS; 1.11 µM in the assay with SK-MEL-2 melanoma. Also, the GI50 in the assay on SK-MEL-5 melanoma was 0.507 µM. In addition, the TGI with HL-60(TB) leukemia turned out to be 1.13 µM; with IGROV1 ovarian, 5.18 µM; in the assay with MALME-3M melanoma, 2.35 µM; in the assay on MDA-MB-435, 0.35 µM; in the assay with SF-539 CNS, 1.47 µM; in the assay with SK-MEL-2 melanoma, 2.55 µM. The molecule further registered a TGI with SK-MEL-5 melanoma of 1.83 µM.

With `O=S(=O)(NCCCNc1cc(-c2cn(-c3ccccc3)nc2-c2cccc(O)c2)ccn1)c1ccc(C(F)(F)F)cc1`, the GI50 with HL-60(TB) leukemia is 2.52 µM; in the assay with IGROV1 ovarian it was 3.24 µM; in the assay on K-562 leukemia, 0.924 µM; in the assay with MDA-MB-435, 1.74 µM; in the assay on SF-539 CNS, 1.83 µM; with SK-MEL-2 melanoma, 1.88 µM. The GI50 with SK-MEL-5 melanoma was 1.56 µM. Moreover, the TGI with HL-60(TB) leukemia came out at 6.2 µM; in the assay with IGROV1 ovarian, 9.55 µM; in the assay on K-562 leukemia, 4.59 µM; with MDA-MB-435 it was 3.46 µM; with SF-539 CNS it was 3.77 µM; in the assay with SK-MEL-2 melanoma it was 3.63 µM. For the same molecule, the TGI in the assay with SK-MEL-5 melanoma was found to be 2.97 µM.

For `O=C(N/N=C/c1ccc(Cl)cc1)c1ccc(NC(=O)c2ccccn2)cc1`, the GI50 is 38.1 µM in the assay on IGROV1 ovarian; greater than 100 µM in the assay with K-562 leukemia; 33.1 µM with MALME-3M melanoma; 23.8 µM in the assay with MDA-MB-435; 15.8 µM in the assay with SF-539 CNS; 17.7 µM in the assay on SK-MEL-2 melanoma. Moreover, the GI50 with SK-MEL-5 melanoma was 8.76 µM. Moreover, the TGI in the assay on IGROV1 ovarian was greater than 100 µM; in the assay on K-562 leukemia, greater than 100 µM; in the assay on MALME-3M melanoma, greater than 100 µM; in the assay on MDA-MB-435 it was greater than 100 µM; with SF-539 CNS, 40.3 µM; with SK-MEL-2 melanoma it was greater than 100 µM. The molecule further registered a TGI in the assay with SK-MEL-5 melanoma of 41.8 µM.
